Among the data in US20240165244A1 (Prelude Therapeutics Incorporated, priority 2022, published 2024) are DC50 and Dmax values, retold here.

One experiment concerns the target T1, SMARCA2 (Homo sapiens, UniProt P51531).
T1 construct: SMARCA2-HiBiT knock-in Hela monoclonal cell (CS302366); host or cells: HeLa monoclonal cells with heterozygous HiBiT knock-in at the endogenous SMARCA2 locus
Put plainly: SMARCA2 HiBiT degradation assay in HeLa cells. It is filed as cell-based. Particulars: 18 hours, highest concentration 10 μM. On the procedure: (§1) SMARCA2 HiBiT and SMARCA4 HiBiT Degradation Assay
HiBiT peptide knock-in of SMARCA2 in LgBiT expressing HEK293T cells was performed by CRISPR-mediated tagging system as described Promega. The homozygous HiBiT knock-in on c-terminus SMARCA2 was confirmed by sanger sequence. SMARCA2-HiBiT knock-in Hela monoclonal cell (CS302366) and SMARCA4-HiBiT knock-in Hela monoclonal cell (CS3023226) were purchased from Promega. The heterozygous HiBiT-knock-in was confirmed by sanger sequence in both SMARCA2-HiBiT and SMARCA4-HiBiT monoclonal cells.
(§2) SMARCA2 HiBiT and SMARCA4 HiBiT Degradation Assay in HeLa Cells
Dispense 10 ul aliquot of prepared Hela-SMARCA2-HiBiT or Hela-SMARCA4-HiBiT cells (1:1 ratio of cells:Trypan Blue (#1450013, Bio-Rad)) onto cell counting slide (#145-0011, Bio-Rad) and obtain cell density and cell viability using cell counter (TC20, Bio-Rad). Remove appropriate volume of resuspended cells from culture flask to accommodate 2500 cells/well @ 20 μL/well. Transfer Hela-HiBiT cells to 50 mL conical (#430290, Corning). Spin down at 1000 rpm for 5 min using tabletop centrifuge (SPINCHRON 15, Beckman). Discard supernatant and resuspend cell pellet in modified EMEM (#30-2003, ATCC) cell culture media containing 10% FBS (F2422-500ML, Sigma), and 1× Penicillin/Streptomycin ([…]) (30-002-CI, Corning) to a cell density of 125,000 cells/mL. Dispense 20 μLof resuspended Hela-HiBit cells per well in 384-well TC treated plate (#12-565-343, Thermo Scientific) using standard cassette (#50950372, Thermo Scientific) on Multidrop Combi (#5840310, Thermo Scientific) inside laminar flow cabinet.
Compounds were dissolved in DMSO to make 10 mM stock and 3-fold series dilutions were further conducted keeping the highest concentration 10 μM. Dispense test compounds onto plates using digital liquid dispenser (D300E, Tecan). Incubate plates in humidified tissue culture incubator @37° C. for 18 hours. Add 20 μL of prepared Nano-Glo® HiBiT Lytic detection buffer (N3050, Promega) to each well of 384-well plate using small tube cassette (#24073295, Thermo Scientific) on Multidrop Combi, incubate @ RT for 30-60 min. Read plates on microplate reader (Envision 2105, PerkinElmer) using 384 well Ultra-Sensitive luminescence mode. Raw data files and compound information reports are swept into centralized data lake and deconvoluted using automated scripts designed by TetraScience, Inc. Data analysis, curve-fitting and reporting done in Dotmatics Informatics Suite using Screening Ultra module.
For orientation: With HiBiT, luminescence reflects the tagged protein that the partner subunit can reach.

A further experiment addresses T2, SMARCA4 (Homo sapiens, UniProt P51532).
T2 construct: SMARCA4-HiBiT knock-in Hela monoclonal cell (CS3023226); host or cells: HeLa monoclonal cells with heterozygous HiBiT knock-in at the endogenous SMARCA4 locus
In words: SMARCA4 HiBiT degradation assay in HeLa cells. In kind it is cell-based. To be noted: 18 hours, highest concentration 10 μM. On the procedure:
as §1
HiBiT peptide knock-in of SMARCA2 in LgBiT expressing HEK293T cells was performed by CRISPR-mediated tagging system as described Promega. […] SMARCA2-HiBiT knock-in Hela monoclonal cell (CS302366) and SMARCA4-HiBiT knock-in Hela monoclonal cell (CS3023226) were purchased from Promega.
as §2
Remove appropriate volume of resuspended cells from culture flask to accommodate 2500 cells/well @ 20 μL/well. […] Spin down at 1000 rpm for 5 min using tabletop centrifuge (SPINCHRON 15, Beckman).
Dispense test compounds onto plates using digital liquid dispenser (D300E, Tecan). Incubate plates in humidified tissue culture incubator @37° C. for 18 hours. […] Raw data files and compound information reports are swept into centralized data lake and deconvoluted using automated scripts designed by TetraScience, Inc. Data analysis, curve-fitting and reporting done in Dotmatics Informatics Suite using Screening Ultra module.

T2 sequence (P51532 whole entry): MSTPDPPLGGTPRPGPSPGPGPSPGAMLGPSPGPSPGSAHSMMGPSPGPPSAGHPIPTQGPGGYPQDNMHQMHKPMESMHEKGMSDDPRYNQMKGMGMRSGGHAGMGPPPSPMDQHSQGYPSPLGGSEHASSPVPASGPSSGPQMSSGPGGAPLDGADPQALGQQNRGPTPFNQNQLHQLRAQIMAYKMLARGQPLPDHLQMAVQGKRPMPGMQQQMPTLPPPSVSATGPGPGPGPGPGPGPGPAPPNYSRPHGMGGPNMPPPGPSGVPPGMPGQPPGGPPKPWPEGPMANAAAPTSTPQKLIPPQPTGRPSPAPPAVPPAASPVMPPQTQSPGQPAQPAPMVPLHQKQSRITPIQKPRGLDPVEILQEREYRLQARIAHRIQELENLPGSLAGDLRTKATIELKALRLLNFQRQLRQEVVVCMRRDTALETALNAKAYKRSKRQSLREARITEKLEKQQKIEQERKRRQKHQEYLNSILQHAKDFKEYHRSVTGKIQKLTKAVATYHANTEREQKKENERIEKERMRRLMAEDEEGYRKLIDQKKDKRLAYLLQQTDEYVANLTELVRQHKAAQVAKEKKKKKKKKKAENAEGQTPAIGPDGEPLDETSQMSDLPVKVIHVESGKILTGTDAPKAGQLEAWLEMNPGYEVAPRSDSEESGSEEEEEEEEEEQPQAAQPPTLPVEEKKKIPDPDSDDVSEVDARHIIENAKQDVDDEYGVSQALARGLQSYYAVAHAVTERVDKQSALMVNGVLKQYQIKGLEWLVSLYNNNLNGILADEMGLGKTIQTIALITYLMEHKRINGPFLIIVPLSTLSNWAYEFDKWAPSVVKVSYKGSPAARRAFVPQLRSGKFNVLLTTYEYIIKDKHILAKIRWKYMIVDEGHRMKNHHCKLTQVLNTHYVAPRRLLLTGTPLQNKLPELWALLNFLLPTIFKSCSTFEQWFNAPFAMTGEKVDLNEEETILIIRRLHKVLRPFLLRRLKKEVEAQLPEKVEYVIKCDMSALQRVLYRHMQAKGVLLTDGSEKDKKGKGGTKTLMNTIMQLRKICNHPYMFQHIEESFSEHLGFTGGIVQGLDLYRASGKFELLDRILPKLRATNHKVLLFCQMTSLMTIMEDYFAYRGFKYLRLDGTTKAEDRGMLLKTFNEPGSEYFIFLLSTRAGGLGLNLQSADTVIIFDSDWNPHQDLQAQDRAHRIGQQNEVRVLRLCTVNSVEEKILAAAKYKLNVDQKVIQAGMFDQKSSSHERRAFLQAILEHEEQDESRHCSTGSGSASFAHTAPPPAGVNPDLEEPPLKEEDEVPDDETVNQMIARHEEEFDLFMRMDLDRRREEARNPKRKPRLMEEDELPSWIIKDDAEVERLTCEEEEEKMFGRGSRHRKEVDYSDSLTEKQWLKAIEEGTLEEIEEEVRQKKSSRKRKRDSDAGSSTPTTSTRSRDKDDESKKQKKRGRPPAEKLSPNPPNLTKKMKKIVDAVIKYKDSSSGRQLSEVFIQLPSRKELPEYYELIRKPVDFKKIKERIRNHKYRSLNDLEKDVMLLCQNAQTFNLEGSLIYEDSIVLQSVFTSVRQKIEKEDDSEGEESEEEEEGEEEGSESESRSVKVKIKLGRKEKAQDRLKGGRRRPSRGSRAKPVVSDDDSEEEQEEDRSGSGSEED
T1 sequence (P51531 whole entry): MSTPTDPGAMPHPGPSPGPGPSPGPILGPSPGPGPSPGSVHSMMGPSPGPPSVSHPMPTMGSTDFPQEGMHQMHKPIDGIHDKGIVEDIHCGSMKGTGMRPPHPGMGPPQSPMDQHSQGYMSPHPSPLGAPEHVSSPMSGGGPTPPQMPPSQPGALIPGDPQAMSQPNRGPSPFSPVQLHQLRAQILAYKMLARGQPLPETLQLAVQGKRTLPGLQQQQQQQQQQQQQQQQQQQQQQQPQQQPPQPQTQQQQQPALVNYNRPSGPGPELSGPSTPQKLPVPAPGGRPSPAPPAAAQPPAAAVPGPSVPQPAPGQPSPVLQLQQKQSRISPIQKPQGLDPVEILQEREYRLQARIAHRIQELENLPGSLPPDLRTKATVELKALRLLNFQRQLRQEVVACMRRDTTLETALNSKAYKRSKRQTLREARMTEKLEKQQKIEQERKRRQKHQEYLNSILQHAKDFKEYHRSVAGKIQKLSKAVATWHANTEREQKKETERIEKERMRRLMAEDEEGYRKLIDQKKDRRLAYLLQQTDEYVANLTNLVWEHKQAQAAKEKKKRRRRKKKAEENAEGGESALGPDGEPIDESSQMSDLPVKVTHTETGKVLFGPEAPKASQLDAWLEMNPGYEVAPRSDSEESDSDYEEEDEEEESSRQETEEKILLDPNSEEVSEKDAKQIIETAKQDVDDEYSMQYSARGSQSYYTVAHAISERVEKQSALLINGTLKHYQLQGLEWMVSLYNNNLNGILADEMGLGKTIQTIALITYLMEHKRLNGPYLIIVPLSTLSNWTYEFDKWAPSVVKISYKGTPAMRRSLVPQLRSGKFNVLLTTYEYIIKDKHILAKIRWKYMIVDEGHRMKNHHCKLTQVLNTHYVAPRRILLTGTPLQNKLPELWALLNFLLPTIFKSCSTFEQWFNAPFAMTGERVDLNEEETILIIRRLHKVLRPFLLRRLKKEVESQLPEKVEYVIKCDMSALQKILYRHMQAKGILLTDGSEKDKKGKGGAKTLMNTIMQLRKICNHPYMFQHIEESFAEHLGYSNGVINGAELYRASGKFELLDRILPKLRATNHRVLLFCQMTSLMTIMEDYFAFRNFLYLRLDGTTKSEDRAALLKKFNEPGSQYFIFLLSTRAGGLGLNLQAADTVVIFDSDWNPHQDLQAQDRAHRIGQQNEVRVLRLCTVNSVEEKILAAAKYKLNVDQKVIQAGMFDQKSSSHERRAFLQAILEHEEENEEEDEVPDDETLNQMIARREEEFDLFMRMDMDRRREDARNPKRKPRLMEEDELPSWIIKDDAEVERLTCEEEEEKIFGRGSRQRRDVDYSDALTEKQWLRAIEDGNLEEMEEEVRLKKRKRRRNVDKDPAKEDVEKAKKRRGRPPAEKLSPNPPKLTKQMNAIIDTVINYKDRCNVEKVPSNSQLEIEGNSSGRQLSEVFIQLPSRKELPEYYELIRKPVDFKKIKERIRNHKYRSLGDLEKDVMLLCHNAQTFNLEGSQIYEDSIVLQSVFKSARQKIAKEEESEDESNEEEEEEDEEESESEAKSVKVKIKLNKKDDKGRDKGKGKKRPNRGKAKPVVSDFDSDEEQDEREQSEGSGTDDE

As for `O=C1CCC(N2Cc3ccc(N4CCN(Cc5ccc(O[C@@H]6C[C@@H]7CNc8nnc(-c9cc(F)cc(F)c9O)cc8N7C6)cc5)CC4)cc3C2=O)C(=O)N1` (stereo partly drawn) [Example 1, 3-(6-(4-(4-(((6aR,8R)-2-(3,5-difluoro-2-hydroxyphenyl)-5,6,6a,7,8,9-hexa-hydropyrrolo[1′,2′:4,5]pyrazino[2,3-c]pyridazin-8-yl)oxy)benzyl)piperazin-1-yl)-1-oxoisoindolin-2-yl)piperidine-2,6-dione], on SMARCA2, the 50% degradation concentration (DC50) – broadly, the concentration at which degradation of the target reaches its halfway point – is less than 100 nM and the Dmax (usually the largest share of the target that was removed) is greater than 75%. On SMARCA4, the DC50 was less than 100 nM and the Dmax was greater than 75%.

For `Cc1cc(CN2CCN(c3ccc4c(c3)C(=O)N(C3CCC(=O)NC3=O)C4)CC2)ccc1O[C@@H]1C[C@@H]2CNc3nnc(-c4cc(F)cc(F)c4O)cc3N2C1` (stereo partly drawn) [Example 2, 3-(6-(4-(4-(((6aR,8R)-2-(3,5-difluoro-2-hydroxyphenyl)-5,6,6a,7,8,9-hexahydropyrrolo[1′,2′:4,5]pyrazino[2,3-c]pyridazin-8-yl)oxy)-3-methylbenzyl)piperazin-1-yl)-1-oxoisoindolin-2-yl)piperidine-2,6-dione], the DC50 at SMARCA2 and on SMARCA4 was less than 100 nM throughout. Besides, the greatest degradation seen (Dmax) at SMARCA2 and on SMARCA4 was greater than 75% each time.

Take `O=C1CCC(N2Cc3ccc(N4CCN(Cc5ccc(O[C@@H]6C[C@@H]7CNc8nnc(-c9cc(F)cc(F)c9O)cc8N7C6)cn5)CC4)cc3C2=O)C(=O)N1` (stereo partly drawn) [Example 3, 3-(6-(4-((5-(((6aR,8R)-2-(3,5-difluoro-2-hydroxyphenyl)-5,6,6a,7,8,9-hexahydropyrrolo[1′,2′:4,5]pyrazino[2,3-c]pyridazin-8-yl)oxy)pyridin-2-yl)methyl)piperazin-1-yl)-1-oxoisoindolin-2-yl)piperidine-2,6-dione]: on SMARCA2, the 50% degradation concentration (DC50) was less than 100 nM and the greatest degradation seen (Dmax) is greater than 75%. For the same molecule, at SMARCA4, the DC50 is less than 100 nM and the Dmax was in the range of 50 to 75%.

As for `O=C1CCC(N2Cc3ccc(N4CCN(Cc5ccc(O[C@@H]6C[C@@H]7CNc8nnc(-c9cc(F)cc(F)c9O)cc8N7C6)c(F)c5)CC4)cc3C2=O)C(=O)N1` (stereo partly drawn) [Example 4, 3-(6-(4-(4-(((6aR,8R)-2-(3,5-difluoro-2-hydroxyphenyl)-5,6,6a,7,8,9-hexahydropyrrolo[1′,2′:4,5]pyrazino[2,3-c]pyridazin-8-yl)oxy)-3-fluorobenzyl)piperazin-1-yl)-1-oxoisoindolin-2-yl)piperidine-2,6-dione], at SMARCA2, the DC50 is less than 100 nM and the Dmax was greater than 75%. At SMARCA4, this molecule had a DC50 of less than 100 nM and a Dmax greater than 75%.

`O=C1CCC(N2Cc3ccc(N4CCN(Cc5ccc(O[C@@H]6C[C@@H]7CNc8nnc(-c9cccc(F)c9O)cc8N7C6)cc5)CC4)cc3C2=O)C(=O)N1` (stereo partly drawn) [Example 5, 3-(6-(4-(4-(((6aR,8R)-2-(3-fluoro-2-hydroxyphenyl)-5,6,6a,7,8,9-hexahydropyrrolo[1′,2′:4,5]pyrazino[2,3-c]pyridazin-8-yl)oxy)benzyl)piperazin-1-yl)-1-oxoisoindolin-2-yl)piperidine-2,6-dione]: on SMARCA2, the DC50 was less than 100 nM and the Dmax was greater than 75%. Also, at SMARCA4, the DC50 is less than 100 nM and the Dmax was greater than 75%.

At SMARCA2, `O=C1CCC(N2Cc3ccc(N4CCN(Cc5ccc(O[C@@H]6C[C@@H]7CNc8nnc(-c9cc(F)cc(F)c9O)cc8N7C6)c(Cl)c5)CC4)cc3C2=O)C(=O)N1` (stereo partly drawn) [Example 6, 3-(6-(4-(3-chloro-4-(((6aR,8R)-2-(3,5-difluoro-2-hydroxyphenyl)-5,6,6a,7,8,9-hexahydropyrrolo[1′,2′:4,5]pyrazino[2,3-c]pyridazin-8-yl)oxy)benzyl)piperazin-1-yl)-1-oxoisoindolin-2-yl)piperidine-2,6-dione] yielded a DC50 of less than 100 nM and a Dmax greater than 75%. On SMARCA4, this molecule returned a 50% degradation concentration (DC50) of less than 100 nM and a Dmax greater than 75%.

Consider `Cc1cc(O[C@@H]2C[C@@H]3CNc4nnc(-c5cc(F)cc(F)c5O)cc4N3C2)ccc1CN1CCN(c2ccc3c(c2)C(=O)N(C2CCC(=O)NC2=O)C3)CC1` (stereo partly drawn) [Example 7, 3-(6-(4-(4-(((6aR,8R)-2-(3,5-difluoro-2-hydroxyphenyl)-5,6,6a,7,8,9-hexahydropyrrolo[1′,2′:4,5]pyrazino[2,3-c]pyridazin-8-yl)oxy)-2-methylbenzyl)piperazin-1-yl)-1-oxoisoindolin-2-yl)piperidine-2,6-dione], for which the 50% degradation concentration (DC50) at SMARCA2 and on SMARCA4 was less than 100 nM each time. Besides, the greatest degradation seen (Dmax) is greater than 75% at SMARCA2 and 50 to 75% on SMARCA4.

On SMARCA2, `O=C1CCC(N2Cc3ccc(N4CCN(Cc5ccc(O[C@@H]6C[C@@H]7CNc8nnc(-c9cccc(Cl)c9O)cc8N7C6)cc5)CC4)cc3C2=O)C(=O)N1` (stereo partly drawn) [Example 8, 3-(6-(4-(4-(((6aR,8R)-2-(3-chloro-2-hydroxyphenyl)-5,6,6a,7,8,9-hexahydropyrrolo[1′,2′:4,5]pyrazino[2,3-c]pyridazin-8-yl)oxy)benzyl)piperazin-1-yl)-1-oxoisoindolin-2-yl)piperidine-2,6-dione] showed a 50% degradation concentration (DC50) of less than 100 nM and a maximal degradation (Dmax) greater than 75%. On SMARCA4, this molecule came in with a DC50 of less than 100 nM and a Dmax greater than 75%.

On SMARCA2, `Cc1cc(O[C@@H]2C[C@@H]3CNc4nnc(-c5cc(F)cc(F)c5O)cc4N3C2)c(C)cc1CN1CCN(c2ccc3c(c2)C(=O)N(C2CCC(=O)NC2=O)C3)CC1` (stereo partly drawn) [Example 9, 3-(6-(4-(4-(((6aR,8R)-2-(3,5-difluoro-2-hydroxyphenyl)-5,6,6a,7,8,9-hexahydropyrrolo[1′,2′:4,5]pyrazino[2,3-c]pyridazin-8-yl)oxy)-2,5-dimethylbenzyl)piperazin-1-yl)-1-oxoisoindolin-2-yl)piperidine-2,6-dione] had a DC50 of less than 100 nM and a Dmax greater than 75%. Also, at SMARCA4, the DC50 is less than 100 nM and the greatest degradation seen (Dmax) lay within 50 to 75%.

With `Cc1cc(O[C@@H]2C[C@@H]3CNc4nnc(-c5cccc(Cl)c5O)cc4N3C2)ccc1CN1CCN(c2ccc3c(c2)C(=O)N(C2CCC(=O)NC2=O)C3)CC1` (stereo partly drawn) [Example 10, 3-(6-(4-(4-(((6aR,8R)-2-(3-chloro-2-hydroxyphenyl)-5,6,6a,7,8,9-hexahydropyrrolo[1′,2′:4,5]pyrazino[2,3-c]pyridazin-8-yl)oxy)-2-methylbenzyl)piperazin-1-yl)-1-oxoisoindolin-2-yl)piperidine-2,6-dione], on SMARCA2, the DC50 is less than 100 nM and the Dmax was greater than 75%. On SMARCA4, the half-maximal degradation concentration (DC50) is greater than 1000 nM and the greatest degradation seen (Dmax) lay within 50 to 75%.

At SMARCA2, `Cc1cc(O[C@@H]2C[C@@H]3CNc4nnc(-c5cccc(F)c5O)cc4N3C2)ccc1CN1CCN(c2ccc3c(c2)C(=O)N(C2CCC(=O)NC2=O)C3)CC1` (stereo partly drawn) [Example 11, 3-(6-(4-(4-(((6aR,8R)-2-(3-fluoro-2-hydroxyphenyl)-5,6,6a,7,8,9-hexahydropyrrolo[1′,2′:4,5]pyrazino[2,3-c]pyridazin-8-yl)oxy)-2-methylbenzyl)piperazin-1-yl)-1-oxoisoindolin-2-yl)piperidine-2,6-dione] gave a DC50 of less than 100 nM and a Dmax greater than 75%. At SMARCA4, the half-maximal degradation concentration (DC50) is less than 100 nM and the Dmax lay within 50 to 75%.
